US8026359B2, “Fungicidal heterocyclic amines” (E.I. du Pont de Nemours and Company, priority 2007, dated 2011)

Legend:
Format in all cases: in vivo
Pythium aphanidermatum = assay: Test M: bluegrass pythium blight, preventive spray on bluegrass seedlings; conditions: 200 ppm; 100 = 100% disease control, 0 = no control relative to controls
From the text: (§1) General protocol for preparing test suspensions for Tests A-R: The test compounds were first dissolved in acetone in an amount equal to 3% of the final volume and then suspended at the desired concentration (in ppm) in acetone and purified water (50/50 mix) containing 250 ppm of the surfactant Trem® 014 (polyhydric alcohol esters). The resulting test suspensions were then used in tests A-R. In Tests A-M, compounds were sprayed as a 200 ppm test suspension (equivalent to a rate of 500 g/ha) or as a 40 ppm test suspension to the point of runoff on the test plants. In Tests N-R, compounds were sprayed as a 100 g/ha test suspension (equivalent to a rate of 100 ppm) on the test plants at an application volume of 1000 L/ha. The test suspension was sprayed to the point of run-off on bluegrass seedlings.

Botrytis cinerea = assay: Test F: tomato Botrytis, preventive spray on tomato seedlings; conditions: 200 ppm, 100 = 100% disease control, 0 = no control relative to controls
Outline: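 Compounds dissolved in acetone (3% of final volume), suspended in 50/50 acetone/water with 250 ppm Trem® 014. Sprayed preventively to run-off on tomato seedlings at 200 ppm (500 g/ha) or 40 ppm.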

Rhizoctonia oryzae = assay: Test J: turf brown patch, preventive spray on creeping bent grass seedlings; conditions: 200 ppm; 100 = 100% disease control, 0 = no control relative to controls
From the text: as §1, with “creeping bent grass” for “bluegrass”

Phytophthora infestans = conditions: 200 ppm; 100 = 100% disease control, 0 = no control relative to controls
Fusarium graminearum = assay: whole plant or invertebrate
[1] = tested on: Puccinia recondita f. sp. tritici; assay: Test B: wheat leaf rust, preventive spray on wheat seedlings; conditions: 200 ppm, 100 = 100% disease control, 0 = no control relative to controls
Outline: (§2)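 Test plants received run-off sprays of 200 ppm suspension (500 g/ha equivalent) or 40 ppm suspension. These suspensions were made by first dissolving each compound in acetone, then suspending it in an equal acetone/water mix carrying 250 ppm Trem 014.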

Plasmopara viticola = assay: Test L: grape downy mildew, spray after inoculation of grape seedlings; conditions: 200 ppm; 100 = 100% disease control, 0 = no control relative to controls
From the text: as §1, with “L/ha. Grape seedlings were inoculated with a spore suspension of Plasmopara viticola (the causal agent of grape downy mildew) and incubated in a saturated atmosphere at 20° C. for 24 h. After a short drying period, the” for “L/ha. The”, “on the grape seedlings and then moved to a growth chamber at 20° C. for 6 days, after which time the test units were placed back into a saturated atmosphere at 20° C. for 24 h. Upon removal, disease ratings were made.” for “on bluegrass seedlings.”

Sclerotinia sclerotiorum = assay: Test G: cucumber white mold, preventive spray on cucumber seedlings; conditions: 200 ppm; 100 = 100% disease control, 0 = no control relative to controls
From the text: as §1, with “cucumber” for “bluegrass”

Septoria nodorum = assay: Test C: wheat glume blotch, preventive spray on wheat seedlings; conditions: 200 ppm, 100 = 100% disease control, 0 = no control relative to controls
Outline: as §2

[2] = tested on: Colletotrichum orbiculare; assay: Test I: cucumber Colletotrichum anthracnose, preventive spray on cucumber seedlings; conditions: 100 = 100% disease control, 0 = no control relative to controls
Outline: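 Compound was dissolved in acetone (3% of final volume), then suspended in 50/50 acetone/water with 250 ppm Trem 014 surfactant. Cucumber seedlings were sprayed to run-off as a preventive treatment at 200 ppm (equivalent to 500 g/ha) or 40 ppm.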

Septoria tritici = assay: Test D: wheat leaf blotch, preventive spray on wheat seedlings; conditions: 200 ppm, 100 = 100% disease control, 0 = no control relative to controls
Outline: as §2

[3] = tested on: Erysiphe graminis f. sp. tritici; assay: Test A: wheat powdery mildew, preventive spray on wheat seedlings; conditions: 200 ppm, 100 = 100% disease control, 0 = no control relative to controls
Outline: as §2

Compound	Test M disease control rating (Pythium aphanidermatum) [%]	pest or weed control at 200 ppm (Botrytis cinerea; Botrytis cinerea, 120 h, read-out: Test F disease control rating) [%]	Test J disease control rating (Rhizoctonia oryzae) [%]	Test K disease control rating (Phytophthora infestans) [%]	pest or weed control at 200 ppm (Fusarium graminearum; Fusarium graminearum, in Triticum aestivum, 192 h, read-out: Test E disease control rating) [%]	pest or weed control at 200 ppm ([1]; Puccinia recondita, 192 h, read-out: Test B disease control rating) [%]	Test L disease control rating (Plasmopara viticola) [%]	Test G disease control rating (Sclerotinia sclerotiorum) [%]	pest or weed control at 200 ppm (Septoria nodorum; Parastagonospora nodorum, 216 h, read-out: Test C disease control rating) [%]	pest or weed control at 200 ppm ([2]; Colletotrichum orbiculare, 144 h, read-out: Test I disease control rating) [%]	pest or weed control at 200 ppm (Septoria tritici; Zymoseptoria tritici, 504 h, read-out: Test D disease control rating) [%]	pest or weed control at 200 ppm ([3]; Blumeria graminis, 192 h, read-out: Test A disease control rating) [%]	Test F disease control rating (Botrytis cinerea) [%]	Test E disease control rating (Fusarium graminearum; 200 ppm, 100 = 100% disease control, 0 = no control relative to controls) [%]	Test B disease control rating [1] [%]	Test C disease control rating (Septoria nodorum) [%]	Test I disease control rating ([2]; 200 ppm) [%]	Test D disease control rating (Septoria tritici) [%]	Test A disease control rating [3] [%]
COCC(C)Nc1nccc(-c2ccnc(Nc3cccc(Cl)c3)c2)n1 (stereo not drawn) [Compound 40, 4-[2-[(3-chlorophenyl)amino]-4-pyridinyl]-N-(2-methoxy-1-methylethyl)-2-pyrimidinamine]	0	99	0	0	48	90	0	83	99	84	27	63							
COCC(C)Nc1nccc(-c2ccnc(Nc3cccc(F)c3)c2)n1 (stereo not drawn) [Compound 41]	0		34	0			0	94					96	45	98	99	54	15	57
